From patent publication US20240109868A1, “EP300/CBP MODULATOR, PREPARATION METHOD THEREFOR AND USE THEREOF” (Miracure Biotechnology Limited, priority 2022, published 2024)
pIC50: −log10 of the molar value.

Legend:
[1] = test system: vCap Cell; assay: vCap cell growth inhibition, CellTiter-Glo, 72 h; format: cell-based; details: Homo sapiens, VCaP, 72 h, vCap cells, 72 h culture
Description: (§1) 22RV1 or vCap cells were cultured in RPMI-1640 medium (10% fetal bovine serum and 100 units (per mL) of penicillin/streptomycin dual antibody were added to RPMI-1640) in a 37° C., 5% CO2 cell incubator. Cells at the logarithmic growth phase were inoculated onto a 96-well cell culture plate at 5×10^3 cells/100 μL/well and cultured overnight. Solutions of different concentrations of an active compound in DMSO were added, with the final concentration being 0.5% DMSO. The positive control was 1% TweeN2O, and the negative control was 0.5% DMSO. After 72 h of culture, an equal volume of CellTiter-Glo was added to each well, and the mixtures were mixed homogeneously by shaking for 2 min. The plate was let stand at room temperature for 10 min, and fluorescence signal values were read using a microplate reader. Data were analyzed using Prism 7.0 and graphs were generated. The values are shown as mean f SEM (N=2). […] The X-axis represents compound concentration (μM), and the Y-axis represents % inhibition.

[2] = test system: 22Rv1 Cell; assay: 22RV1 cell growth inhibition, CellTiter-Glo, 72 h; format: cell-based; details: Homo sapiens, 22Rv1, 72 h, 22RV1 cells, 72 h culture
Description: as §1

SMILES	pIC50 [1]	pIC50 [2]
CN1CCN(c2cc3c(c(N4CCCc5cc(-c6cnn(C)c6)c(C(F)F)cc54)c2)CN(C)C(=O)C3)CC1 [Compound M001024]	< 6.00	< 6.00
CN1Cc2c(cc(C3CCNCC3)cc2N2CCCc3cc(-c4cnn(C)c4)c(C(F)F)cc32)CC1=O [Compound M001027]	< 6.00	< 6.00
CN1CCC(c2cc3c(c(N4CCCc5cc(-c6cnn(C)c6)c(C(F)F)cc54)c2)CN(C)C(=O)C3)CC1 [Compound M001028, 8-[7-(difluoromethyl)-6-(1-methylpyrazol-4-yl)-3,4-dihydro-2H-quinolin-1-yl]-2-methyl-6-(1-methyl-4-piperidyl)-1,4-dihydroisoquinolin-3-one]	< 6.00	< 6.00
CC(=O)N1Cc2cc(C3CCN(C[C@H](C)O)CC3)cc(N3CCCc4cc(-c5cnn(C)c5)c(C(F)F)cc43)c2C1 [Compound M001030]	< 6.00	< 6.00
CC(=O)N1Cc2cc(C3CC4CCC(C3)N4C)cc(N3CCCc4cc(-c5cnn(C)c5)c(C(F)F)cc43)c2C1 (centres unmarked) [Compound M001032]	< 6.00	< 6.00
CNC(=O)N1CCc2cc(C3CC4CCC(C3)N4C)cc(N3CCCc4cc(-c5cnn(C)c5)c(C(F)F)cc43)c2C1 (centres unmarked) [Compound M001035]	< 6.00	< 6.00
CC(=O)N1Cc2cc(C3CCNCC3)cc(N3CCCc4cc(-c5cnn(C)c5)c(C(F)F)cc43)c2C1 [Compound M001040]	< 6.00	< 6.00
CC(=O)N1Cc2cc(C3CCN(C)CC3)cc(N3CCCc4cc(-c5cnn(C)c5)c(C(F)F)cc43)c2C1 [Compound M001041]	< 6.00	< 6.00
CNC(=O)N1Cc2cc(C3CCNCC3)cc(N3CCCc4cc(-c5cnn(C)c5)c(C(F)F)cc43)c2C1 [Compound M001042]	< 6.00	< 6.00
CNC(=O)N1Cc2cc(C3CCN(C)CC3)cc(N3CCCc4cc(-c5cnn(C)c5)c(C(F)F)cc43)c2C1 [Compound M001043]	< 6.00	< 6.00
CNC(=O)N1CCc2cc(N3CCNCC3)cc(N3CCCc4cc(-c5cnn(C)c5)c(C(F)F)cc43)c2C1 [Compound M001044]	< 6.00	< 6.00
CNC(=O)N1CCc2cc(N3CCN(C)CC3)cc(N3CCCc4cc(-c5cnn(C)c5)c(C(F)F)cc43)c2C1 [Compound M001045]	< 6.00	< 6.00
CC(=O)N1Cc2cc(C3CCNC3)cc(N3CCCc4cc(-c5cnn(C)c5)c(C(F)F)cc43)c2C1 (centres unmarked) [Compound M001046]	< 6.00	< 6.00
CC(=O)N1Cc2cc(C3CCN(C)C3)cc(N3CCCc4cc(-c5cnn(C)c5)c(C(F)F)cc43)c2C1 (centres unmarked) [Compound M001047]	< 6.00	< 6.00
CC(=O)N1Cc2cc(C3CCCNC3)cc(N3CCCc4cc(-c5cnn(C)c5)c(C(F)F)cc43)c2C1 (centres unmarked) [Compound M001048]	< 6.00	< 6.00
CC(=O)N1Cc2cc(C3CCCN(C)C3)cc(N3CCCc4cc(-c5cnn(C)c5)c(C(F)F)cc43)c2C1 (centres unmarked) [Compound M001049]	< 6.00	< 6.00
CNC(=O)N1CCc2cc(C3CCNC3)cc(N3CCCc4cc(-c5cnn(C)c5)c(C(F)F)cc43)c2C1 (centres unmarked) [Compound M001050]	< 6.00	< 6.00
CNC(=O)N1CCc2cc(C3CCN(C)C3)cc(N3CCCc4cc(-c5cnn(C)c5)c(C(F)F)cc43)c2C1 (centres unmarked) [Compound M001051]	< 6.00	< 6.00
CC(=O)N1Cc2cc(C3CC4CCC(C3)N4)cc(N3CCCc4cc(-c5cnn(C)c5)c(C(F)F)cc43)c2C1 (centres unmarked) [Compound M001052]	< 6.00	< 6.00
CC(=O)N1Cc2cc(C3CCN(C(C)=O)C3)cc(N3CCCc4cc(-c5cnn(C)c5)c(C(F)F)cc43)c2C1 (centres unmarked) [Compound M001053]	> 6.00	< 6.00
CNC(=O)N1CCc2cc(C3CCN(C(C)=O)C3)cc(N3CCCc4cc(-c5cnn(C)c5)c(C(F)F)cc43)c2C1 (centres unmarked) [Compound M001054]	< 6.00	< 6.00
CNC(=O)N1CCc2cc(C3CCN(CC(F)F)CC3)cc(N3CCCc4cc(-c5cnn(C)c5)c(C(F)F)cc43)c2C1 [Compound M001055]	< 6.00	< 6.00
CC(=O)N1Cc2cc(C3CCN(C4COC4)CC3)cc(N3CCCc4cc(-c5cnn(C)c5)c(C(F)F)cc43)c2C1 [Compound M001056]	< 6.00	< 6.00
CC(=O)N1Cc2cc(C3CCN(CC(F)(F)F)CC3)cc(N3CCCc4cc(-c5cnn(C)c5)c(C(F)F)cc43)c2C1 [Compound M001057]	< 6.00	< 6.00
CC(=O)N1Cc2cc(C3CCN(CC(F)F)CC3)cc(N3CCCc4cc(-c5cnn(C)c5)c(C(F)F)cc43)c2C1 [Compound M001058]	< 6.00	< 6.00

SMILES	pIC50 [1]	pIC50 [2]
CNC(=O)N1CCc2cc(C3CCN(C4COC4)CC3)cc(N3CCCc4cc(-c5cnn(C)c5)c(C(F)F)cc43)c2C1 [Compound M001059]	< 6.00	< 6.00
CNC(=O)N1CCc2cc(C3CCN(CC(F)(F)F)CC3)cc(N3CCCc4cc(-c5cnn(C)c5)c(C(F)F)cc43)c2C1 [Compound M001060]	< 6.00	< 6.00
CC(=O)N1Cc2cc(C3CCC(O)CC3)cc(N3CCCc4cc(-c5cnn(C)c5)c(C(F)F)cc43)c2C1 (centres unmarked) [Compound M001064]	> 6.00	< 6.00
CC(=O)N1Cc2cc(C3CCC(F)(F)CC3)cc(N3CCCc4cc(-c5cnn(C)c5)c(C(F)F)cc43)c2C1 [Compound M001066]	< 6.00	< 6.00
CNC(=O)N1CCc2cc(C3CCN(C(C)=O)CC3)cc(N3CCCc4cc(-c5cnn(C)c5)c(C(F)F)cc43)c2C1 [Compound M001068]	> 6.00	> 6.00
CNC(=O)N1CCc2cc(C3CCN(C(=O)C4CC4)CC3)cc(N3CCCc4cc(-c5cnn(C)c5)c(C(F)F)cc43)c2C1 [Compound M001069]	< 6.00	> 6.00
CNC(=O)N1CCc2cc(C3CCN(CC#N)CC3)cc(N3CCCc4cc(-c5cnn(C)c5)c(C(F)F)cc43)c2C1 [Compound M001070]	< 6.00	< 6.00
CC(=O)N1CCC(c2cc3c(c(N4CCCc5cc(-c6cnn(C)c6)c(C(F)F)cc54)c2)CN(C(C)=O)C3)CC1 [Compound M001071]	< 6.00	< 6.00
CC(=O)N1Cc2cc(C3CCN(C(=O)C4CC4)CC3)cc(N3CCCc4cc(-c5cnn(C)c5)c(C(F)F)cc43)c2C1 [Compound M001072]	< 6.00	< 6.00
CC(=O)N1Cc2cc(C3CCN(C(=O)C(C)O)CC3)cc(N3CCCc4cc(-c5cnn(C)c5)c(C(F)F)cc43)c2C1 (centres unmarked) [Compound M001073]	< 6.00	< 6.00
CC(=O)N1Cc2cc(C3CCN(CC#N)CC3)cc(N3CCCc4cc(-c5cnn(C)c5)c(C(F)F)cc43)c2C1 [Compound M001074]	> 6.00	> 6.00
CNC(=O)N1CCc2cc(C3CCN(C(=O)C4CCNC4)CC3)cc(N3CCCc4cc(-c5cnn(C)c5)c(C(F)F)cc43)c2C1 (centres unmarked) [Compound M001075]	< 6.00	< 6.00
CC(=O)N1Cc2cc(C3CCN(C(=O)C4CNC4)CC3)cc(N3CCCc4cc(-c5cnn(C)c5)c(C(F)F)cc43)c2C1 [Compound M001079]	< 6.00	< 6.00
CC(=O)N1Cc2cc(C3CCN(C(=O)C4CCNC4)CC3)cc(N3CCCc4cc(-c5cnn(C)c5)c(C(F)F)cc43)c2C1 (centres unmarked) [Compound M001080]	< 6.00	< 6.00
CC(=O)N1Cc2cc(C3CCN(C(=O)c4ccccc4)CC3)cc(N3CCCc4cc(-c5cnn(C)c5)c(C(F)F)cc43)c2C1 [Compound M001081]	> 6.00	> 6.00
CNC(=O)N1CCc2cc(C3CCN(C(=O)C4CNC4)CC3)cc(N3CCCc4cc(-c5cnn(C)c5)c(C(F)F)cc43)c2C1 [Compound M001083]	< 6.00	< 6.00
CNC(=O)N1CCc2cc(C3CCN(C(=O)C4CN(C)C4)CC3)cc(N3CCCc4cc(-c5cnn(C)c5)c(C(F)F)cc43)c2C1 [Compound M001084]	< 6.00	< 6.00
CNC(=O)N1CCc2cc(C3CCN(C(=O)C4CCN(C)C4)CC3)cc(N3CCCc4cc(-c5cnn(C)c5)c(C(F)F)cc43)c2C1 (centres unmarked) [Compound M001085]	< 6.00	< 6.00
CC(=O)N1Cc2cc(C3CCN(C(=O)C4CN(C)C4)CC3)cc(N3CCCc4cc(-c5cnn(C)c5)c(C(F)F)cc43)c2C1 [Compound M001086]	< 6.00	< 6.00
CC(=O)N1Cc2cc(C3CCN(C(=O)C4CCN(C)C4)CC3)cc(N3CCCc4cc(-c5cnn(C)c5)c(C(F)F)cc43)c2C1 (centres unmarked) [Compound M001087]	< 6.00	< 6.00
CNC(=O)N1CCc2cc(C3=CC4CCC(C3)N4)cc(N3CCCc4cc(-c5cnn(C)c5)c(C(F)F)cc43)c2C1 (centres unmarked) [Compound M001088]	< 6.00	< 6.00
CNC(=O)N1CCc2cc(C3CC4CCC(C3)N4)cc(N3CCCc4cc(-c5cnn(C)c5)c(C(F)F)cc43)c2C1 (centres unmarked) [Compound M001089]	< 6.00	< 6.00
CNC(=O)N1CCc2cc(C3=CCC4(CC3)OCCO4)cc(N3CCCc4cc(-c5cnn(C)c5)c(C(F)F)cc43)c2C1 [Compound M001090]	< 6.00	< 6.00
CNC(=O)N1Cc2cc(C3CC4CCC(C3)N4C)cc(N3CCCc4cc(-c5cnn(C)c5)c(C(F)F)cc43)c2C1 (centres unmarked) [Compound M001092]	< 6.00	< 6.00
